What follows are compounds tested against T1, Glycogen phosphorylase, muscle form (Oryctolagus cuniculus, UniProt P00489) (assay: Inhibition of rabbit skeletal muscle glycogen phosphorylase b by Dixon plot).
T1 sequence (P00489 whole entry): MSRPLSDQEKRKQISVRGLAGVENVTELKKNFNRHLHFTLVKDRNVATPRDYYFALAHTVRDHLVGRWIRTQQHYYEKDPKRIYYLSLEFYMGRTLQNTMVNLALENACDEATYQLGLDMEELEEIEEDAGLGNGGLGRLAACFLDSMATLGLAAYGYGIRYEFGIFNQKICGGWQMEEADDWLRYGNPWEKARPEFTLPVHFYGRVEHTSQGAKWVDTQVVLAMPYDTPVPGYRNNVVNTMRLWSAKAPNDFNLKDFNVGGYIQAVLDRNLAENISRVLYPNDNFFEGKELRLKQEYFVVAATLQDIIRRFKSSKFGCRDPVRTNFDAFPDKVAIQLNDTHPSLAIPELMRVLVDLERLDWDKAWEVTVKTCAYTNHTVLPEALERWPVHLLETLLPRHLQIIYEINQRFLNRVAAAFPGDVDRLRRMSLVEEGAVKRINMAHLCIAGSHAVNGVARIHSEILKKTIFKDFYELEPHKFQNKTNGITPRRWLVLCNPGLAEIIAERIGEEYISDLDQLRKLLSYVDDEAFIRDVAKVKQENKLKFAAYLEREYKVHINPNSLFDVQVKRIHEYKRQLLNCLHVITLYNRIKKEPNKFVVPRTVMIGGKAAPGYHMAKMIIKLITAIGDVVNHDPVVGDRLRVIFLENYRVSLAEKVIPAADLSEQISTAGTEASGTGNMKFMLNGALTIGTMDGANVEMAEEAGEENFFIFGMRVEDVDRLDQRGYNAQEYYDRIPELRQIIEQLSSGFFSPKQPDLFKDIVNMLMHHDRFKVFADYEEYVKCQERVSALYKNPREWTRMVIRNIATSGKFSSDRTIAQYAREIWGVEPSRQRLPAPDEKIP

Ki | SMILES
16 µM | COC(=O)N[C@]1(C(N)=O)O[C@H](CO)[C@@H](O)[C@H](O)[C@H]1O
20 µM | O=C(CO)N[C@@H]1O[C@H](CO)[C@@H](O)[C@H](O)[C@H]1O
26 µM | OCc1cn([C@@H]2O[C@H](CO)[C@@H](O)[C@H](O)[C@H]2O)nn1

SMILES | Ki
OC[C@H]1O[C@@H](n2cc(-c3ccccc3)nn2)[C@H](O)[C@@H](O)[C@@H]1O | 162 µM
OC[C@H]1O[C@@H](n2cc(-c3ccc4ccccc4c3)nn2)[C@H](O)[C@@H](O)[C@@H]1O | 36 µM

What follows are compounds tested against T1, Glycogen phosphorylase, muscle form (assay: Inhibition of rabbit skeletal muscle glycogen phosphorylase b by Lineweaver-Burke plot analysis).

SMILES | IC50
O=C(O)c1cn([C@H]2O[C@H](CO)[C@@H](O)[C@H](O)[C@H]2O)nn1 | 400 µM
NC(=O)[C@@]1(n2cc(-c3ccc4ccccc4c3)nn2)O[C@H](CO)[C@@H](O)[C@H](O)[C@H]1O | 780 µM
OC[C@H]1O[C@@H](n2cc(Cc3ccccc3)nn2)[C@H](O)[C@@H](O)[C@@H]1O | 600 µM
OC[C@H]1O[C@@H](n2cc(-c3cccc4ccccc34)nn2)[C@H](O)[C@@H](O)[C@@H]1O | 625 µM

Further lines, results first:

IC50 | SMILES
670 µM | OCc1cn([C@H]2O[C@H](CO)[C@@H](O)[C@H](O)[C@H]2O)nn1
350 µM | NOC(=O)c1cn([C@@H]2O[C@H](CO)[C@@H](O)[C@H](O)[C@H]2O)nn1
500 µM | COC(=O)c1cn([C@@H]2O[C@H](CO)[C@@H](O)[C@H](O)[C@H]2O)nn1

These compounds were tested against T1, Glycogen phosphorylase, muscle form.

Ki | SMILES
16 µM | COC(=O)N[C@]1(C(N)=O)O[C@H](CO)[C@@H](O)[C@H](O)[C@H]1O
210 µM | COCC(=O)N[C@@H]1O[C@H](CO)[C@@H](O)[C@H](O)[C@H]1O
1100 µM | O=C(Cc1ccccc1)N[C@@H]1O[C@H](CO)[C@@H](O)[C@H](O)[C@H]1O
370 µM | NC(=O)[C@H]1O[C@H](CO)[C@@H](O)[C@H](O)[C@H]1O
310 µM | CC(=O)N[C@]1(C(N)=O)O[C@H](CO)[C@@H](O)[C@H](O)[C@H]1O

SMILES | Ki
O=C(NC1O[C@H](CO)[C@@H](O)[C@H](O)[C@H]1O)c1ccccc1 (single isomer, unassigned) | 144 µM

Reference: ChEMBL document CHEMBL1156863, “Synthesis of 1-(D-glucopyranosyl)-1,2,3-triazoles and their evaluation as glycogen phosphorylase inhibitors” (Bioorg Med Chem, 2010)
